# Source: paper PMC8549260, “Crude extract and isolated bioactive compounds from Notholirion thomsonianum (Royale) Stapf as multitargets antidiabetic agents: in-vitro and molecular docking approaches” (BMC Complementary Medicine and Therapies, 2021)
# Where two headings read alike, the source gives them in different places.
# Key:
# [1] = ABTS free radicals scavenging assay; settings: for ABTS Assay % Scavenging (mean ± SEM): n = 3
# Procedure: Plant crude samples were also evaluated against ABTS free radicals using standard protocol. In this protocols, 7 mM solution of ABTS and 2.45 mM of potassium per sulfate were mixed and kept in dark at laboratory temperature for around 16 h till the color become dark. Solution of 0.01 M of phosphate buffer having pH 7.40 was mixed with it and absorbance was adjusted at 0.70 at 734 nm. Afterwards, solution of the plant extracts (300 μl) was added to ABTS solution (3 mL) and absorbance was recorded at 734 nm. Mixed the solution for 1 min and reduction in absorbance was recorded. The mixing and reduction were repeated for 6 min. The experiments were performed three times. The percent inhibitions and subsequent IC50 values of samples and standard ascorbic acid were calculated as per the standard procedure.
# [2] = DPPH free radicals scavenging assay; settings: for DPPH Assay % Scavenging (mean ± SEM) / DPPH Percent Inhibition (mean ± SEM): n = 3
# Procedure: Plant samples solutions were prepared ranging from 125 to 1000 μg/ mL and were added to 0.004% methanolic solution of DPPH. Subsequent to 30 min incubation, absorbances were measured at 517 nm.
# In free radicals’ assays including DPPH, ABTS and H2O2, the IC50s were calculated using same method.
# [3] = H2O2 free radicals scavenging assay; settings: n = 3
# Procedure: This method was used to determine the antioxidant potentials of crude extracts from N. thomsonianum. A solution of H2O2 (2 mM) was prepared in buffer solution of phosphate (50 mM, pH 7.40). In a test tube, 0.10 mL of crude extract was measured, and the volume was diluted to 0.40 mL by adding the phosphate buffer. Then 0.60 mL solution of H2O2 was added to it and was mixed properly. The absorbance of the crude sample and standard were recorded on 230 nm. The same procedure was repeated for all the crude samples.
# Yeast α-Glucosidase = Yeast α-Glucosidase (Saccharomyces cerevisiae, UniProt P53341); test: biochemical; settings: for IC50: α-Glucosidase IC50, Table 3, isolated compounds series
# Procedure: In 0.10 M of phosphate buffer having pH of 6.90, the α-glucosidase enzyme solution was prepared (0.50 U/ mL). […] The same solution without the enzyme was used as a blank. The absorbances were recorded at 405 nm. All the experiments were repeated in triplicate. The percent inhibitions and subsequent IC50 (in μg/mL and also in μM) were calculated accordingly. […]
# α-amylase = molecular target: T1, α-amylase (Homo sapiens, UniProt P04746); test: In-vitro α-amylase inhibition; assay type: biochemical; settings: for IC50: Table 3, isolated compounds series
# T1 sequence (P04746 16-511): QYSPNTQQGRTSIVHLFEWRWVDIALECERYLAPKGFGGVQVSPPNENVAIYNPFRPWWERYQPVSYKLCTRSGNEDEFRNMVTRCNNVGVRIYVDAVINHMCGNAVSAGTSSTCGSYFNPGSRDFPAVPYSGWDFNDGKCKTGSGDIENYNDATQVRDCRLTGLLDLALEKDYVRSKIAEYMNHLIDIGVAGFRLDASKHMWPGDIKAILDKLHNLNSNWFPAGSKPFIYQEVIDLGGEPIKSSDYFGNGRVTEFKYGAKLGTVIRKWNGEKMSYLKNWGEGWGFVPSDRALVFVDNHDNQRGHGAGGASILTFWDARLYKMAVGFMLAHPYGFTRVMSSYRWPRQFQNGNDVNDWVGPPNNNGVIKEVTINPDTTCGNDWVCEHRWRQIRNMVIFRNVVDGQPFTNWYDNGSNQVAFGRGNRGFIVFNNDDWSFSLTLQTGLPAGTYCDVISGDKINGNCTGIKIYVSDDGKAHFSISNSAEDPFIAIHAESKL
# Procedure: The amylase solution was prepared in phosphate buffer followed by addition of different concentrations of plant extracts and isolated compounds. The solutions of test samples in enzyme solution were allowed to react. The solutions were incubated for a specific temperature and were added starch solution. Afterwards, a solution of dinitrosalicylic acid was added to both of the groups, i.e. sample and control solution groups. The solutions were then allowed to heat up in boiling water for a few min. […] The experiments were performed in triplicates and percent inhibitions were calculated as per the reported formula. […]
# PTP1B = molecular target: T2, PTP1B (Homo sapiens, UniProt P18031); test: Protein tyrosine phosphatase 1B inhibition; assay type: biochemical
# T2 sequence (P18031 1-435): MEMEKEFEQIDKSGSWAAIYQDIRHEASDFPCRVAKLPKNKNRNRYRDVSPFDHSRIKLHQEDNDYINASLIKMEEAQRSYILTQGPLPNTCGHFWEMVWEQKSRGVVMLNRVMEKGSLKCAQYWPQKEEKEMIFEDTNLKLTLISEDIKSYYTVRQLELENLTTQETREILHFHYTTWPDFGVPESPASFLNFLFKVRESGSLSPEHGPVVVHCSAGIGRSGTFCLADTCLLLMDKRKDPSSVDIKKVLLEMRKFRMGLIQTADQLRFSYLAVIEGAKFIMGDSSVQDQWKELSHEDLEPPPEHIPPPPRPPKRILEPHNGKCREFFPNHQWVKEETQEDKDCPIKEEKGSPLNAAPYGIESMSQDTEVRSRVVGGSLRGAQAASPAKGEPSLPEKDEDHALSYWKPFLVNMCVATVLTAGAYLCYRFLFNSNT
# Procedure: The solutions were then incubated for 40 min at 27 °C and absorbances were recorded at 405 nm using microplate reader. The experiments were repeated three times and percent inhibitions followed by IC50 values were recorded accordingly.
# [4] = read-out: Alpha glucosidase Percent Inhibition (mean ± SEM)
# [5] = read-out: α-Glucosidase Percent Inhibition (mean ± SEM)
# [6] = read-out: Alpha amylase Percent Inhibition (mean ± SEM)
# [7] = read-out: α-Amylase Percent Inhibition (mean ± SEM)
# [8] = Table 3, 125 μg/mL, n = 3, read-out: α-Amylase Percent Inhibition (mean ± SEM) (converted)
# [9] = Table 3, 250 μg/mL, n = 3, read-out: α-Amylase Percent Inhibition (mean ± SEM) (converted)
# [10] = Table 3, 500 μg/mL, n = 3, read-out: α-Amylase Percent Inhibition (mean ± SEM)
# [11] = 125 μg/mL, n = 3, read-out: PTP1B Percent Inhibition (mean ± SEM) (converted)
# [12] = 250 μg/mL, n = 3, read-out: PTP1B Percent Inhibition (mean ± SEM) (converted)
# [13] = 500 μg/mL, n = 3, read-out: PTP1B Percent Inhibition (mean ± SEM)
# [14] = read-out: PTP1B Percent Inhibition (mean ± SEM)
# Yeast α-Glucosidase, sequence (P53341 whole entry): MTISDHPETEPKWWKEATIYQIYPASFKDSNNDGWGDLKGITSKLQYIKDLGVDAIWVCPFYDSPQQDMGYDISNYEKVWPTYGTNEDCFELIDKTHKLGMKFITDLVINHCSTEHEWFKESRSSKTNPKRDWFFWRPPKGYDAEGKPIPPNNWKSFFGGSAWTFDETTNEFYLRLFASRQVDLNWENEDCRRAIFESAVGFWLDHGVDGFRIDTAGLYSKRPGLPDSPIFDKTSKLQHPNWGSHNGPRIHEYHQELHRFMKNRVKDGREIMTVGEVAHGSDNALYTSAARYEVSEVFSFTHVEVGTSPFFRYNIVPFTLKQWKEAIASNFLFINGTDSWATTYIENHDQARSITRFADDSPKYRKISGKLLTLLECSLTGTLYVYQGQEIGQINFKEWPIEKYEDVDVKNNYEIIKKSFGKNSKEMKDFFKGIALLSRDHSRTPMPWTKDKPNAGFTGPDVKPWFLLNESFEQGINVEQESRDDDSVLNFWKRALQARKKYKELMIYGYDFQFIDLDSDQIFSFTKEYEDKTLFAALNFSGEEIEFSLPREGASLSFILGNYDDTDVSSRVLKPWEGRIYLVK
Compound,"DPPH Percent Inhibition (mean ± SEM) ([2]; Table 4, 125 μg/mL)","DPPH Percent Inhibition (mean ± SEM) ([2]; Table 4, 250 μg/mL)","DPPH Percent Inhibition (mean ± SEM) ([2]; Table 4, 500 μg/mL)",inhibition at 125 µg/mL (Yeast α-Glucosidase; [5]),inhibition at 250 µg/mL (Yeast α-Glucosidase; [5]),inhibition at 500 µg/mL (Yeast α-Glucosidase; [5]),inhibition at 125 µg/mL (α-amylase; [7]),inhibition at 250 µg/mL (α-amylase; [7]),inhibition at 500 µg/mL (α-amylase; [7]),inhibition at 125 µg/mL (α-amylase; [8]),inhibition at 250 µg/mL (α-amylase; [9]),inhibition at 500 µg/mL (α-amylase; [10]),IC50 (α-amylase),IC50 (α-amylase; based on molecular weight),IC50 (PTP1B),inhibition at 125 µg/mL (PTP1B; [11]),inhibition at 250 µg/mL (PTP1B; [12]),inhibition at 500 µg/mL (PTP1B; [13]),IC50 (PTP1B; based on molecular weight),IC50 (Yeast α-Glucosidase),also measured
"O=C1O[C@H]([C@@H](O)CO)C(O)=C1O [AA, Ascorbic acid]",85.20 ± 0.49%,88.47 ± 0.71%,91.75 ± 0.42%,,,,,,,,,,,,,,,,,,"ABTS Assay IC50 [1]: < 0.1 µg/mL; ABTS Assay % Scavenging (mean ± SEM) ([1]; 125 μg/mL): 78.46 ± 0.58%; ABTS Assay % Scavenging (mean ± SEM) ([1]; 250 μg/mL): 80.43 ± 0.55%; ABTS Assay % Scavenging (mean ± SEM) ([1]; 500 μg/mL): 86.53 ± 0.60%; ABTS Assay % Scavenging (mean ± SEM) ([1]; 1000 μg/mL): 87.60 ± 0.40%; DPPH Assay % Scavenging (mean ± SEM) ([2]; Table 2, 125 μg/mL): 76.54 ± 0.54%; DPPH Assay % Scavenging (mean ± SEM) ([2]; Table 2, 250 μg/mL): 81.33 ± 0.88%; DPPH Assay % Scavenging (mean ± SEM) ([2]; Table 2, 500 μg/mL): 87.84 ± 0.26%; DPPH Assay % Scavenging (mean ± SEM) ([2]; Table 2, 1000 μg/mL): 92.55 ± 0.35%; DPPH Assay IC50 ([2]; Table 2, crude extracts series): < 0.1 µg/mL; H2O2 Assay % Scavenging (mean ± SEM) ([3]; 125 μg/mL): 68.00 ± 0.57%; H2O2 Assay % Scavenging (mean ± SEM) ([3]; 250 μg/mL): 71.50 ± 0.60%; H2O2 Assay % Scavenging (mean ± SEM) ([3]; 500 μg/mL): 74.66 ± 0.49%; H2O2 Assay % Scavenging (mean ± SEM) ([3]; 1000 μg/mL): 83.33 ± 0.88%"
"C[C@H]1O[C@H](O[C@H]2[C@H](O)[C@@H](O)[C@@H](O[C@H]3[C@H](O)[C@@H](O)C(O)O[C@@H]3CO)O[C@@H]2CO)[C@H](O)[C@@H](O)[C@@H]1N[C@H]1C=C(CO)[C@@H](O)[C@H](O)[C@H]1O (some centres unmarked) [Acarbose, reference compound]",,,,77.6%,82.4%,87.08 ± 0.47%,83.9%,89.5%,95.23 ± 0.22%,,,,,,,,,,,,inhibition at 125 µg/mL (Yeast α-Glucosidase; [4]): 61.5%; inhibition at 250 µg/mL (Yeast α-Glucosidase; [4]): 67.5%; inhibition at 500 µg/mL (Yeast α-Glucosidase; [4]): 73.9%; inhibition at 1000 µg/mL (Yeast α-Glucosidase; [4]): 76.87 ± 0.06%; inhibition at 125 µg/mL (α-amylase; [6]): 64.5%; inhibition at 250 µg/mL (α-amylase; [6]): 69%; inhibition at 500 µg/mL (α-amylase; [6]): 71.7%; inhibition at 1000 µg/mL (α-amylase; [6]): 78.63 ± 0.54%
CC(C)=CC(=O)CC(C)c1ccc(C)cc1 (centres unmarked) [Nt01],79.62 ± 0.03%,84.36 ± 1.15%,88.35 ± 0.89%,44.4%,51.9%,55.6 ± 1.06%,,,,67.9%,72.1%,77.8 ± 2.24%,< 144 µM,< 145 µM,< 144 µM,83.4%,88.7%,90.09 ± 0.32%,< 145 µM,,
CCCC/C=C/C=O [Nt02],74.78 ± 0.44%,79.32 ± 0.40%,86.60 ± 0.00%,66.9%,71.1%,76.8 ± 2.24%,78.4%,85.3%,91.36 ± 0.49%,,,,< 279 µM,< 279 µM,< 279 µM,,,,< 279 µM,< 279 µM,IC50 (Yeast α-Glucosidase; based on molecular weight): < 279 µM; inhibition at 125 µg/mL (PTP1B; [14]): 85.8%; inhibition at 250 µg/mL (PTP1B; [14]): 90.9%; inhibition at 500 µg/mL (PTP1B; [14]): 93.03 ± 0.48%
Cc1c(C)c2c(c(C)c1O)CCC(C)(CCCC(C)CCCC(C)CCCC(C)C)O2 (centres unmarked) [Nt03],84.44 ± 0.15%,87.14 ± 0.49%,90.69 ± 0.14%,70.6%,73.4%,78.35 ± 0.23%,,,,80.6%,86.5%,93.1 ± 1.04%,< 72.6 µM,< 72.7 µM,< 72.6 µM,82.3%,87.2%,90.83 ± 0.47%,< 72.7 µM,< 72.6 µM,IC50 (Yeast α-Glucosidase; based on molecular weight): < 72.7 µM
"C[C@H]1[C@H](C)CC[C@]2(C(=O)O)CC[C@]3(C)C(=CC[C@@H]4[C@@]5(C)CC[C@H](O)C(C)(C)[C@@H]5CC[C@]43C)[C@H]12 [Ursolic acid, reference compound]",,,,,,,,,,,,,,,,91.5%,93.6%,98.7 ± 1.32%,,,
